“Also recorded” adds a separate entry of the source.
Key:
Candida albicans = assay: Zone of inhibition assay (agar plates); type: cell-based; details: 168 h, after 7 days, 250 μg/mL
A. strictum = assay: Zone of inhibition assay (agar plates); type: cell-based, Acremonium strictum; set-up: key to Zone of Inhibition: X denotes no observable zone of inhibition; details: after 7 days, 250 μg/mL; for zone of inhibition at 250 µg/mL: Sarocladium strictum, 168 h
T. rubrum = assay: Zone of inhibition assay (agar plates); type: cell-based; details: Trichophyton rubrum, 168 h; after 7 days, 250 μg/mL
Microsporum canis = assay: Zone of inhibition assay (agar plates); type: cell-based; details: 168 h, after 7 days, 250 μg/mL
A. terreus = assay: Zone of inhibition assay (agar plates); type: cell-based, Aspergillus terreus; set-up: key to Zone of Inhibition: X denotes no observable zone of inhibition; details: after 7 days, 250 μg/mL
C. kruseii = assay: Zone of inhibition assay (agar plates); type: cell-based; set-up: key to Zone of Inhibition: X denotes no observable zone of inhibition; details: after 7 days, 250 μg/mL; for zone of inhibition at 250 µg/mL: 168 h
Acremonium chrysogenum = assay: Zone of inhibition assay (agar plates); type: cell-based; details: Hapsidospora chrysogena, 168 h; after 7 days, 250 μg/mL
F. proliferatum = assay: Zone of inhibition assay (agar plates); type: cell-based; set-up: key to Zone of Inhibition: X denotes no observable zone of inhibition; details: after 7 days, 250 μg/mL
Fusarium oxysporum = assay: Zone of inhibition assay (agar plates); type: cell-based; set-up: key to Zone of Inhibition: X denotes no observable zone of inhibition; details: after 7 days, 250 μg/mL
Aspergillus flavus = assay: Zone of inhibition assay (agar plates); type: cell-based; set-up: key to Zone of Inhibition: X denotes no observable zone of inhibition; details: after 7 days, 250 μg/mL
[1] = tested on: Scopulariopsis brevicaulis; assay: Zone of inhibition assay (agar plates); type: cell-based; set-up: key to Zone of Inhibition: X denotes no observable zone of inhibition; details: after 7 days, 250 μg/mL
S. hyalinum = assay: Zone of inhibition assay (agar plates); type: cell-based, Scytalidium hyalinum; set-up: key to Zone of Inhibition: X denotes no observable zone of inhibition; details: after 7 days, 250 μg/mL
[2] = tested on: Trichophyton mentagrophytes; assay: Zone of inhibition assay (agar plates); type: cell-based; set-up: key to Zone of Inhibition: X denotes no observable zone of inhibition; details: after 7 days, 250 μg/mL
C. parapsilosis = assay: Zone of inhibition assay (agar plates); type: cell-based; details: Lodderomyces parapsilosis, 168 h; after 7 days, 250 μg/mL
Epidermophyton floccosum = assay: Zone of inhibition assay (agar plates); type: cell-based; set-up: key to Zone of Inhibition: X denotes no observable zone of inhibition; details: after 7 days, 250 μg/mL
Scytalidium dimidiatum = assay: Zone of inhibition assay (agar plates); type: cell-based; set-up: key: X denotes no observable zone of inhibition; details: after 7 days, 250 μg/mL
[3] = oral treatment, literature reports; cited from earlier work
toenail onychomycosis = details: oral treatment, toenail onychomycosis (Einarson et al. 1994); cited from earlier work

Question: For `CC12CCC(CC1=O)C2(C)C` (stereo not drawn) [Ca, Camphor], which zone of inhibition at 250 µg/mL (Candida albicans) is on record?
Answer: 7 mm

Question: And the “Zone of Inhibition” value (A. strictum)?
Answer: X

Question: What about the zone of inhibition at 250 µg/mL (T. rubrum) of the same compound?
Answer: 8 mm

Question: What about the zone of inhibition at 250 µg/mL (Microsporum canis) of the same compound?
Answer: 2 mm

Question: And the “Zone of Inhibition” value (A. terreus)?
Answer: X

Question: And the “Zone of Inhibition” value (C. kruseii)?
Answer: X

Question: And the zone of inhibition at 250 µg/mL (Acremonium chrysogenum)?
Answer: 10 mm

Question: And the “Zone of Inhibition” value (F. proliferatum)?
Answer: X

Question: And the “Zone of Inhibition” value (Fusarium oxysporum)?
Answer: X

Question: And the “Zone of Inhibition” value (Aspergillus flavus)?
Answer: X

Question: And the “Zone of Inhibition” value [1]?
Answer: X

Question: What about the “Zone of Inhibition” value (S. hyalinum) of the same compound?
Answer: X

Question: And the “Zone of Inhibition” value [2]?
Answer: X

Question: And the zone of inhibition at 250 µg/mL (C. parapsilosis)?
Answer: 7 mm

Question: What about the “Zone of Inhibition” value (Epidermophyton floccosum) of the same compound?
Answer: X

Question: What about the “Zone of Inhibition” value (Scytalidium dimidiatum) of the same compound?
Answer: X

Question: With `COC1=CC(=O)C[C@@H](C)[C@]12Oc1c(Cl)c(OC)cc(OC)c1C2=O` [GRI, griseofulvin] as the compound, how does the side effects [3] read?
Answer: elevated liver enzymes

Question: And the “success rates of the treatments” value (toenail onychomycosis)?
Answer: 17.5%

Question: For `CC(=O)N1CCN(c2ccc(OCC3COC(Cn4ccnc4)(c4ccc(Cl)cc4Cl)O3)cc2)CC1` (stereo not drawn) [KET, ketoconazole], which side effects [3] is on record?
Answer: elevated liver enzymes; also recorded: anti-androgenic dysfunction in males and adrenal dysfunction

Question: What about the “success rates of the treatments” value (toenail onychomycosis) of the same compound?
Answer: 40.8%

Question: What does the source list for `CC1CCC(C(C)C)C(O)C1` (stereo not drawn) [M, Menthol]?
Answer: zone of inhibition at 250 µg/mL (Candida albicans): 14 mm; zone of inhibition at 250 µg/mL (A. strictum): 9 mm; zone of inhibition at 250 µg/mL (T. rubrum): 15 mm; zone of inhibition at 250 µg/mL (Microsporum canis): 3 mm; Zone of Inhibition (A. terreus): X; zone of inhibition at 250 µg/mL (C. kruseii): 12 mm; zone of inhibition at 250 µg/mL (Acremonium chrysogenum): 15 mm; Zone of Inhibition (F. proliferatum): X; Zone of Inhibition (Fusarium oxysporum): X; Zone of Inhibition (Aspergillus flavus): X; Zone of Inhibition [1]: X; Zone of Inhibition (S. hyalinum): X; Zone of Inhibition [2]: X; zone of inhibition at 250 µg/mL (C. parapsilosis): 11 mm; zone of inhibition at 250 µg/mL (Epidermophyton floccosum; Epidermophyton floccosum, 168 h): 2 mm; Zone of Inhibition (Scytalidium dimidiatum): X

Question: Which results are given for `Cc1ccc(C(C)C)c(O)c1` [T, Thymol]?
Answer: zone of inhibition at 250 µg/mL (Candida albicans): 17 mm; zone of inhibition at 250 µg/mL (A. strictum): 12 mm; zone of inhibition at 250 µg/mL (T. rubrum): 16 mm; zone of inhibition at 250 µg/mL (Microsporum canis): 20 mm; zone of inhibition at 250 µg/mL (A. terreus; Aspergillus terreus, 168 h): 3 mm; zone of inhibition at 250 µg/mL (C. kruseii): 16 mm; zone of inhibition at 250 µg/mL (Acremonium chrysogenum): 20 mm; zone of inhibition at 250 µg/mL (F. proliferatum; Fusarium proliferatum, 168 h): 3 mm; zone of inhibition at 250 µg/mL (Fusarium oxysporum; Fusarium oxysporum, 168 h): 2 mm; zone of inhibition at 250 µg/mL (Aspergillus flavus; Aspergillus flavus, 168 h): 6 mm; zone of inhibition at 250 µg/mL ([1]; Scopulariopsis brevicaulis, 168 h): 14 mm; zone of inhibition at 250 µg/mL (S. hyalinum; Neoscytalidium hyalinum, 168 h): 5 mm; zone of inhibition at 250 µg/mL ([2]; Trichophyton mentagrophytes, 168 h): 10 mm; zone of inhibition at 250 µg/mL (C. parapsilosis): 20 mm; Zone of Inhibition (Epidermophyton floccosum): X; Zone of Inhibition (Scytalidium dimidiatum): X

Question: Which “success rates of the treatments” value (toenail onychomycosis) does the source give for `CN(C/C=C/C#CC(C)(C)C)Cc1cccc2ccccc12` [TER, terbinafine] here?
Answer: 78.3%

Question: Which side effects [3] does the source give for `CCC(C)n1ncn(-c2ccc(N3CCN(c4ccc(OCC5COC(Cn6cncn6)(c6ccc(Cl)cc6Cl)O5)cc4)CC3)cc2)c1=O` (stereo not drawn) [itraconazole] here?
Answer: elevations of serum transaminases, alkaline phosphatase and bilirubin

Reference: patent US6344190B1, “Method and compositions for treatment of fungal nail disease” (Board of Trustees of Michigan State University, priority 1999, dated 2002)
